{
  "source": "patent US8344009B2",
  "about": "“Substituted phenoxy thiazolidinediones as estrogen related receptor-á modulators” (priority 2007, dated 2013)",
  "data": [
    {"target": "T1, ERR1 (also known as ERR-α or ERR-1) (Homo sapiens, UniProt P11474)", "T1 sequence (P11474 193-421 limits assumed)": "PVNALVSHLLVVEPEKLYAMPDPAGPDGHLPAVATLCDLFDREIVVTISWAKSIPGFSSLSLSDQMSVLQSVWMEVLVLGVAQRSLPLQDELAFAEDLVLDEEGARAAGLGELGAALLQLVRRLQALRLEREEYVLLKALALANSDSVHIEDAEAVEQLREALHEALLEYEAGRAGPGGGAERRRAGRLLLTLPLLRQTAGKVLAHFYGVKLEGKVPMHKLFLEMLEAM", "test": "TR-FRET assay (disruption of co-activator peptide binding to ERR1 LBD)", "format": "biochemical", "conditions": "not given", "description": "(§1) Time-Resolved Fluorescence Resonance Energy Transfer (TR-FRET) experiments were performed to examine the functional response of ERR1 (also known as ERR-α or ERR-1) ligands. The TR-FRET assay described herein relied on the conformation of ERR1 for binding to a co-activator peptide: when a test compound binds to ERR1 and alters its conformation, it can disrupt the binding of the co-activator peptide. The components of this homogeneous secondary assay included: the ^6His-tagged-ERR1LBD, a GST-labeled-hSRC2 co-activator polypeptide and a fluorescent donor/acceptor pair from CIS bio international htrf/bioassays (Bedford, Mass.) using both an α-GST Europium Cryptate (Eu) label and an α^6His-XL665 (allophycocyanin) fluorophore.\n(§2) Reactions were allowed to reach equilibrium at 25° C. for 4-18 hours before collecting data on the Analyst from LJL Biosystems (Molecular Devices Sunnyvale, Calif.). […] Dose response curves were fitted using a hyperbolic equation and the data reported is the average of 3 independent experiments.", "units": {"EC50": "nM"}, "values": [
      {"smiles": "COc1cc(/C=C2\\SC(=O)NC2=O)ccc1Oc1ccc(C(F)(F)F)cc1Cl", "note": "[Compound 2, 5-[4-(2-Chloro-4-trifluoromethyl-phenoxy)-3-methoxy-benzylidene]-thiazolidine-2,4-dione]", "EC50": 130},
      {"smiles": "COc1cc(/C=C2\\SC(=O)NC2=O)ccc1Oc1ccc(C(F)(F)F)cc1C#N", "note": "[Compound 8, 2-[4-(2,4-Dioxo-thiazolidin-5-ylidenemethyl)-2-methoxy-phenoxy]-5-trifluoromethyl-benzonitrile]", "EC50": 550},
      {"smiles": "COC(=O)c1cc(C(F)(F)F)ccc1Oc1ccc(/C=C2\\SC(=O)NC2=O)cc1OC", "note": "[Compound 9, 2-[4-(2,4-Dioxo-thiazolidin-5-ylidenemethyl)-2-methoxy-phenoxy]-5-trifluoromethyl-benzoic acid methyl ester]", "EC50": 480},
      {"smiles": "COC(=O)c1ccc(Oc2ccc(/C=C3\\SC(=O)NC3=O)cc2OC)c(C(F)(F)F)c1", "note": "[Compound 10, 4-[4-(2,4-Dioxo-thiazolidin-5-ylidenemethyl)-2-methoxy-phenoxy]-3-trifluoromethyl-benzoic acid methyl ester]", "EC50": 12},
      {"smiles": "COc1cc(/C=C2\\SC(=O)NC2=O)ccc1Oc1ccc(C#N)c2ccccc12", "note": "[Compound 19, 4-[4-(2,4-Dioxothiazolidin-5-ylidenemethyl)-2-methoxyphenoxy]naphthalene-1-carbonitrile]", "EC50": 120},
      {"smiles": "COc1cc(/C=C2\\SC(=O)NC2=O)ccc1Oc1ccc(C(F)(F)F)cc1Br", "note": "[Compound 20, 5-[4-(2-Bromo-4-trifluoromethylphenoxy)-3-methoxybenzylidene]thiazolidine-2,4-dione]", "EC50": 380},
      {"smiles": "COc1cc(/C=C2\\SC(=O)NC2=O)ccc1Oc1ccc(C#N)cc1Cl", "note": "[Compound 21, 3-Chloro-4-[4-(2,4-dioxothiazolidin-5-ylidenemethyl)-2-methoxyphenoxy]benzonitrile]", "EC50": 430},
      {"smiles": "COc1cc(/C=C2\\SC(=O)NC2=O)ccc1Oc1ccc(C#N)cc1Br", "note": "[Compound 22, 3-Bromo-4-[4-(2,4-dioxothiazolidin-5-ylidenemethyl)-2-methoxyphenoxy]benzonitrile]", "EC50": 480},
      {"smiles": "COC(=O)c1ccc(Oc2ccc(/C=C3\\SC(=O)NC3=O)cc2OC)c2ccccc12", "note": "[Compound 24]", "EC50": 1}
    ]},
    {"target": "T1, ERR1 (also known as ERR-α or ERR-1)", "test": "TR-FRET assay (disruption of co-activator peptide binding to ERR1 LBD)", "format": "biochemical", "conditions": "average of 3 independent experiments; read-out: TR-FRET EC50", "description": "as §1, §2", "units": {"EC50": "nM"}, "values": [
      {"smiles": "COc1cc(/C=C2\\SC(=O)NC2=O)ccc1Oc1ccc(S(C)(=O)=O)cc1Br", "note": "[Compound 3, 5-[4-(2-Bromo-4-methanesulfonyl-phenoxy)-3-methoxy-benzylidene]-thiazolidine-2,4-dione]", "EC50": 1030},
      {"smiles": "COc1cc(/C=C2\\SC(=O)NC2=O)ccc1Oc1ccc(S(C)(=O)=O)cc1Cl", "note": "[Compound 4, 5-[4-(2-Chloro-4-methanesulfonyl-phenoxy)-3-methoxy-benzylidene]-thiazolidine-2,4-dione]", "EC50": 550},
      {"smiles": "COc1cc(/C=C2\\SC(=O)NC2=O)ccc1Oc1ccc(Br)cc1C(F)(F)F", "note": "[Compound 5, 5-[4-(4-Bromo-2-trifluoromethyl-phenoxy)-3-methoxy-benzylidene]-thiazolidine-2,4-dione]", "EC50": 570},
      {"smiles": "COc1cc(/C=C2\\SC(=O)NC2=O)ccc1Oc1ccc(C(N)=O)cc1C(F)(F)F", "note": "[Compound 6, 4-[4-(2,4-Dioxo-thiazolidin-5-ylidenemethyl)-2-methoxy-phenoxy]-3-trifluoromethyl-benzamide]", "EC50": 510},
      {"smiles": "Cc1cc(/C=C2\\SC(=O)NC2=O)ccc1Oc1ccc(C#N)c2ccccc12", "note": "[Compound 11, 4-[4-(2,4-Dioxo-thiazolidin-5-ylidenemethyl)-2-methyl-phenoxy]-naphthalene-1-carbonitrile]", "EC50": 480},
      {"smiles": "N#Cc1ccc(Oc2ccc(/C=C3\\SC(=O)NC3=O)cc2F)c(C(F)(F)F)c1", "note": "[Compound 12, 4-[4-(2,4-Dioxo-thiazolidin-5-ylidenemethyl)-2-fluoro-phenoxy]-3-trifluoromethyl-benzonitrile]", "EC50": 150},
      {"smiles": "CCOc1cc(/C=C2\\SC(=O)NC2=O)ccc1Oc1ccc(C#N)cc1C(F)(F)F", "note": "[Compound 13, 4-[4-(2,4-Dioxo-thiazolidin-5-ylidenemethyl)-2-ethoxy-phenoxy]-3-trifluoromethyl-benzonitrile]", "EC50": 180},
      {"smiles": "Cc1cc(/C=C2\\SC(=O)NC2=O)ccc1Oc1ccc(C#N)cc1C(F)(F)F", "note": "[Compound 14, 4-[4-(2,4-Dioxo-thiazolidin-5-ylidenemethyl)-2-methyl-phenoxy]-3-trifluoromethyl-benzonitrile]", "EC50": 200},
      {"smiles": "CCOc1cc(/C=C2\\SC(=O)NC2=O)ccc1Oc1ccc(C#N)c2ccccc12", "note": "[Compound 15, 4-[4-(2,4-Dioxo-thiazolidin-5-ylidenemethyl)-2-ethoxy-phenoxy]-naphthalene-1-carbonitrile]", "EC50": 37},
      {"smiles": "N#Cc1ccc(Oc2ccc(/C=C3\\SC(=O)NC3=O)cc2Br)c(C(F)(F)F)c1", "note": "[Compound 16, 4-[2-Bromo-4-(2,4-dioxo-thiazolidin-5-ylidenemethyl)-phenoxy]-3-trifluoromethyl-benzonitrile]", "EC50": 600},
      {"smiles": "N#Cc1ccc(Oc2ccc(/C=C3\\SC(=O)NC3=O)cc2F)c2ccccc12", "note": "[Compound 17, 4-[4-(2,4-Dioxo-thiazolidin-5-ylidenemethyl)-2-fluoro-phenoxy]-naphthalene-1-carbonitrile]", "EC50": 100},
      {"smiles": "N#Cc1ccc(Oc2ccc(/C=C3\\SC(=O)NC3=O)cc2Cl)c(C(F)(F)F)c1", "note": "[Compound 18, 4-[2-Chloro-4-(2,4-dioxo-thiazolidin-5-ylidenemethyl)-phenoxy]-3-trifluoromethyl-benzonitrile]", "EC50": 520},
      {"smiles": "COc1cc(/C=C2\\OC(=O)NC2=O)ccc1Oc1ccc(C#N)c2ccccc12", "note": "[Compound 23, 4-[4-(2,4-Dioxo-oxazolidin-5-ylidenemethyl)-2-methoxy-phenoxy]-naphthalene-1-carbonitrile]", "EC50": 480},
      {"smiles": "N#Cc1ccc(Oc2ccc(/C=C3\\SC(=O)NC3=O)cc2C(F)(F)F)c(C(F)(F)F)c1", "note": "[Compound 26, 4-[4-(2,4-Dioxo-thiazolidin-5-ylidenemethyl)-2-trifluoromethyl-phenoxy]-3-trifluoromethyl-benzonitrile]", "EC50": 1000},
      {"smiles": "CCOc1cc(/C=C2\\SC(=O)NC2=O)ccc1Oc1ccc(C(N)=O)cc1C(F)(F)F", "note": "[Compound 27, 4-[4-(2,4-Dioxo-thiazolidin-5-ylidenemethyl)-2-ethoxy-phenoxy]-3-trifluoromethyl-benzamide]", "EC50": 330},
      {"smiles": "Cc1cc(/C=C2\\SC(=O)NC2=O)ccc1Oc1ccc(C(N)=O)cc1C(F)(F)F", "note": "[Compound 28, 4-[4-(2,4-Dioxo-thiazolidin-5-ylidenemethyl)-2-methyl-phenoxy]-3-trifluoromethyl-benzamide]", "EC50": 440},
      {"smiles": "N#Cc1ccc(Oc2ccc(/C=C3\\SC(=O)NC3=O)cc2OC(F)(F)F)c(C(F)(F)F)c1", "note": "[Compound 29, 4-[4-(2,4-Dioxo-thiazolidin-5-ylidenemethyl)-2-trifluoromethoxy-phenoxy]-3-trifluoromethyl-benzonitrile]", "EC50": 180},
      {"smiles": "COc1cc(/C=C2\\SC(=O)NC2=O)ccc1Oc1ccc(Cl)cc1C(F)(F)F", "note": "[Compound 30, 5-[4-(4-Chloro-2-trifluoromethyl-phenoxy)-3-methoxy-benzylidene]-thiazolidine-2,4-dione]", "EC50": 8},
      {"smiles": "O=C1NC(=O)/C(=C/c2ccc(Oc3ccc(Cl)cc3C(F)(F)F)c(F)c2)S1", "note": "[Compound 31, 5-[4-(4-Chloro-2-trifluoromethyl-phenoxy)-3-fluoro-benzylidene]thiazolidine-2,4-dione]", "EC50": 33}
    ]}
  ]
}
